Test results from patent US9090655B2, “Low hemolytic antimicrobial peptide, pharmaceutical composition and use thereof” (priority 2010, dated 2015).
Like-named read-outs stand apart in the source and are kept apart here. Where no end group is shown, it is not given here.

Key:
Format in all cases: cell-based
[1] = system: human red blood cells (hRBC); experiment: Hemolytic assay; conditions: for lysis percentage: hRBC 5% v/v, one hour at 37° C.
Method: Melittin, Pem-2252 L and Pem-2254 L were tested for hemolysis against human red blood cells (hRBC). […] The hRBCs with EDTA were rinsed 3 times with PBS (800×g, 10 min) and re-suspended in PBS. The hRBCs were diluted into 10% with phosphate-buffered saline and placed 50 μl into each eppendorf. The peptides dissolved in PBS were then added to 50 μl of 10% solution of hRBCs and incubated for an hour at 37° C. (final hRBC concentration, 5% v/v). The samples were centrifuged at 800 g for 10 min […]. Various concentrations of peptides were incubated with pretreated hRBC and the percentage of hemolysis determined (Percentage lysis, Zero hemolysis (blank) and 100% hemolysis were determined in PBS buffer and 1% Triton X-100). […] At 5 μg/ml, 50 μg/ml and 400 μg/ml, its lysis percentages were 0.45%, 1.52% and 16.35%, respectively.

[2] = system: outer membrane of E. coli; experiment: Outer membrane permeabilization, NPN uptake assay; conditions: intact E. coli cells, NPN fluorescence
Method: The outer membrane permeabilization activity of the peptide variants was determined by the 1-N-phenylnaphthylamine (NPN) uptake assay, using intact cells of E. coli. […] Since NPN is hydrophobic, it provides a direct measurement of the degree of outer membrane permeability. E. coli take up little or no NPN in a general condition. […] Fluorescence would vary with the concentration of peptide. The steps of the embodiment were described as follow. One ml of overnight culture was used to inoculate 50 ml of media and incubated at 37° C. with shaking. The culture was permitted to grow to an OD600 of 0.4 to 0.6, cells were spun down at 3500 rpm for 10 minutes, washed, and re-suspended in buffer to an OD600 of 0.5. The OD600 was recorded, 1 ml of cells (OD600=0.5) was added to the cuvette and measured after 2-5 seconds. 20 μl NPN 0.5 mM, shaken to mix, was added and measured after 2-5 seconds. 10 ul antibiotic 100× desired final concentration was added, shaken to mix, and measured until the maximal value was reached within 1 to 5 minutes. The concentration of peptide leading to 50% of the maximum increase in NPN uptake was recorded as the P50. As results shown in table 4, all of the peptides were capable of interacting with membrane.

[3] = system: Staphylococcus aureus (ATCC 29213)
Method: (§1) The in vitro antimicrobial activities of antimicrobial agents were tested using minimum inhibition concentration (MIC) tests. The MIC value is the lowest concentration of peptide at which the visible growth of test organisms was inhibited and reduced. The test strains herein were E. coli (ATCC 25922), Pseudomonas aeruginosa (ATCC 27853) and Staphylococcus aureus (ATCC 29213).
(§2) Overnight cultures of the test organisms were diluted to produce an inoculum containing approximately 10^5 colonies in Meuller-Hinton broth (MHB). Peptide solution with different concentrations was added to diluted culture of the test organisms. After 18 hours of incubation at 37° C., the results were assayed for turbidity as an indicator of cell growth. MIC values for the peptides were measured three times at different time points. […] On the other hand, modifications for primary or secondary structures without influencing their activity, such as acetylation, amidation, formylation, hydroxylation, lipid modification, methylation or phosphorylation, were performed herein.

[4] = system: E. coli (ATCC 25922)
Method: as §1, §2

[5] = system: Pseudomonas aeruginosa (ATCC 27853)
Method: as §1, §2

[6] = system: Bacillus substilis
From the text: (§3) The MIC values against various strains are shown in table 3, Pem-2251 L and Pem-2254 L have great microbial activity as well.

[7] = system: Staphylococcus epidermidis
From the text: as §3

[8] = system: Staphylococcus aureus
From the text: as §3

[9] = system: Pseudomonas aeruginosa
From the text: as §3

[10] = system: Bacillus cereus
From the text: as §3

[11] = system: Bacillus pumilus
From the text: as §3

[12] = system: E. coli
From the text: as §3

[13] = S. aureus ATCC 29213, MHB, 18 hours at 37° C., mean of three
[14] = E. coli ATCC 25922, MHB, 18 hours at 37° C., mean of three
[15] = P. aeruginosa ATCC 27853, MHB, 18 hours at 37° C., mean of three

Compound	MIC ([3]; ATCC 29213, 18 h)	MIC ([4]; ATCC 25922, 18 h)	MIC ([5]; ATCC 27853, 18 h)	MIC [3, 13]	MIC [4, 14]	MIC [5, 15]	other results
CC[C@H](C)[C@H](NC(=O)CN)C(=O)NCC(=O)N[C@@H](C)C(=O)N[C@H](C(=O)N[C@@H](CC(C)C)C(=O)N[C@@H](CCCCN)C(=O)N[C@H](C(=O)N[C@@H](CC(C)C)C(=O)N[C@H](C(=O)N[C@H](C(=O)NCC(=O)N[C@@H](CC(C)C)C(=O)N1CCC[C@H]1C(=O)N[C@@H](C)C(=O)N[C@@H](CC(C)C)C(=O)N[C@H](C(=O)N[C@@H](CO)C(=O)N[C@@H](Cc1c[nH]c2ccccc12)C(=O)N[C@H](C(=O)N[C@@H](CCCCN)C(=O)N[C@@H](CCCNC(=N)N)C(=O)N[C@@H](CCCCN)C(=O)N[C@@H](CCCNC(=N)N)C(=O)N[C@@H](CCC(N)=O)C(=O)N[C@@H](CCC(N)=O)C(N)=O)[C@@H](C)CC)[C@@H](C)CC)[C@@H](C)O)[C@@H](C)O)C(C)C)C(C)C [Melittin, reference compound]	–	–	–	–	–	–	lysis percentage ([1]; 5 μg/ml peptide): 50%; lysis percentage ([1]; 50 μg/ml peptide): 100%; lysis percentage ([1]; 400 μg/ml peptide): 100%
KFKRWLA-NH2 [Pem-1001 L, Lys Phe Lys Arg Trp Leu Ala]	50 mg/L	50 mg/L	50 mg/L	–	–	–	P50 (concentration of peptide leading to 50% of the maximum increase in NPN uptake) [2]: 6.25 µg/mL
KKFRRFVRFIAKK-NH2 [Pem-2253 L, Lys Lys Phe Arg Arg Phe Val Arg Phe Ile Ala Lys Lys]	12.5 mg/L	12.5 mg/L	12.5 mg/L	–	–	–	–
KKWRAWLKWLAKK-NH2 [Pem-2251 L, Lys Lys Trp Arg Ala Trp Leu Lys Trp Leu Ala Lys Lys]	12.5 mg/L	1.565 mg/L	6.25 mg/L	–	–	–	MIC [6]: 3.125 mg/L; MIC [7]: 3.125 mg/L; MIC [8]: 3.125 mg/L; MIC [9]: 6.25 mg/L; MIC [10]: 6.25 mg/L; MIC [11]: 6.25 mg/L; MIC [12]: 3.125 mg/L; P50 (concentration of peptide leading to 50% of the maximum increase in NPN uptake) [2]: 6.25 µg/mL
KKWRKWLKWLAKK-NH2 [Pem-2254 L, Lys Lys Trp Arg Lys Trp Leu Lys Trp Leu Ala Lys Lys]	–	1.565 mg/L	1.565 mg/L	–	–	–	MIC [6]: 3.125 mg/L; MIC [7]: 1.565 mg/L; MIC [8]: 1.565 mg/L; MIC [9]: 3.125 mg/L; MIC [10]: 6.25 mg/L; MIC [11]: 3.125 mg/L; MIC [12]: 1.565 mg/L; lysis percentage ([1]; 5 μg/ml peptide): 0.45%; lysis percentage ([1]; 50 μg/ml peptide): 1.52%; lysis percentage ([1]; 400 μg/ml peptide): 16.35%
KKWRKWLRAIAKK-NH2 [Pem-2252 L, Lys Lys Trp Arg Lys Trp Leu Arg Ala Ile Ala Lys Lys]	25 mg/L	25 mg/L	25 mg/L	–	–	–	lysis percentage ([1]; 5 μg/ml peptide): 3.12%; lysis percentage ([1]; 5 μg/ml peptide, listed as Pem-2252): 0.45%; lysis percentage ([1]; 50 μg/ml peptide): 9.82%; lysis percentage ([1]; 50 μg/ml peptide, listed as Pem-2252): 1.52%; lysis percentage ([1]; 400 μg/ml peptide): 37.66%; lysis percentage ([1]; 400 μg/ml peptide, listed as Pem-2252): 16.35%; hemolytic activity against hRBC, in words ([1]; compared with other antimicrobial peptides): less hemolytic against hRBC than other antimicrobial peptides
KWKIWLK-NH2 [Pem-1003 L, Lys Trp Lys Ile Trp Leu Lys]	12.5 mg/L	25 mg/L	12.5 mg/L	–	–	–	–
Lys Lys Phe Arg Arg Phe Val Arg Phe Ile Ala Lys Lys (KKFRRFVRFIAKK; not fully specified (bridges); printed as Lys Lys Phe Arg Arg Phe Val Arg Phe Ile Ala Lys Lys; also: cyclic topology, ring type not given here) [Pem-2253 C]	–	–	–	50 mg/L	50 mg/L	50 mg/L	–
Lys Lys Trp Arg Ala Trp Leu Lys Trp Leu Ala Lys Lys (KKWRAWLKWLAKK; not fully specified (bridges); printed as Lys Lys Trp Arg Ala Trp Leu Lys Trp Leu Ala Lys Lys; also: cyclic topology, ring type not given here) [Pem-2251 C]	–	–	–	50 mg/L	25 mg/L	25 mg/L	–
Lys Lys Trp Arg Lys Trp Leu Arg Ala Ile Ala Lys Lys (KKWRKWLRAIAKK; not fully specified (bridges); printed as Lys Lys Trp Arg Lys Trp Leu Arg Ala Ile Ala Lys Lys; also: cyclic topology, ring type not given here) [Pem-2252 C]	–	–	–	>50 mg/L	>50 mg/L	>50 mg/L	–
Lys Lys Trp Arg Lys Trp Leu Lys Trp Leu Ala Lys Lys (KKWRKWLKWLAKK; not fully specified (bridges); printed as Lys Lys Trp Arg Lys Trp Leu Lys Trp Leu Ala Lys Lys; also: cyclic topology, ring type not given here) [Pem-2254 C]	–	–	–	50 mg/L	25 mg/L	25 mg/L	–
Lys Phe Arg Ala Trp Val Arg (KFRAWVR; not fully specified (bridges); printed as Lys Phe Arg Ala Trp Val Arg; also: cyclic topology, ring type not given here) [Pem-1002 C]	–	–	–	>50 mg/L	>50 mg/L	>50 mg/L	–
Lys Phe Lys Arg Trp Leu Ala (KFKRWLA; not fully specified (bridges); printed as Lys Phe Lys Arg Trp Leu Ala; also: cyclic topology, ring type not given here) [Pem-1001 C]	–	–	–	>50 mg/L	>50 mg/L	>50 mg/L	–
